ChEMBL document CHEMBL4507274 (2021)

What was measured:
[1] = target: Kappa-type opioid receptor (Homo sapiens, UniProt P41145); test: GPCRScan assay: inhibition of KOR; design: radioligand conc. used [nm] 0.6 – 1.2, parental cells stable HEK
[2] = test system: Tyrosine-protein kinase ABL1 (Homo sapiens), P00519 [F317L]; conditions: Compound concentration 100.0 nM
[3] = target: Activin receptor type-1B (Homo sapiens) (UniProt P36896); conditions: Compound concentration 100.0 nM
[4] = test system: Serine/threonine-protein kinase B-raf (Homo sapiens), P15056 [V600E]; conditions: Compound concentration 100.0 nM
[5] = target: Calcium/calmodulin-dependent protein kinase type 1D (Homo sapiens) (UniProt Q8IU85); conditions: Compound concentration 100.0 nM
[6] = target: Macrophage colony-stimulating factor 1 receptor (Homo sapiens) (UniProt P07333); conditions: Compound concentration 100.0 nM
[7] = target: Dual specificity tyrosine-phosphorylation-regulated kinase 1A (Homo sapiens) (UniProt Q13627); conditions: Compound concentration 100.0 nM
[8] = target: Ephrin type-A receptor 3 (Homo sapiens) (UniProt P29320); conditions: Compound concentration 100.0 nM
[9] = target: Receptor tyrosine-protein kinase erbB-3 (Homo sapiens) (UniProt P21860); conditions: Compound concentration 100.0 nM
[10] = target: Mitogen-activated protein kinase 15 (Homo sapiens) (UniProt Q8TD08); conditions: Compound concentration 100.0 nM
[11] = target: Serine/threonine-protein kinase/endoribonuclease IRE1 (Homo sapiens) (UniProt O75460); conditions: Compound concentration 100.0 nM
Sequence of Serine/threonine-protein kinase/endoribonuclease IRE1 (Homo sapiens) (O75460 19-977 limits assumed): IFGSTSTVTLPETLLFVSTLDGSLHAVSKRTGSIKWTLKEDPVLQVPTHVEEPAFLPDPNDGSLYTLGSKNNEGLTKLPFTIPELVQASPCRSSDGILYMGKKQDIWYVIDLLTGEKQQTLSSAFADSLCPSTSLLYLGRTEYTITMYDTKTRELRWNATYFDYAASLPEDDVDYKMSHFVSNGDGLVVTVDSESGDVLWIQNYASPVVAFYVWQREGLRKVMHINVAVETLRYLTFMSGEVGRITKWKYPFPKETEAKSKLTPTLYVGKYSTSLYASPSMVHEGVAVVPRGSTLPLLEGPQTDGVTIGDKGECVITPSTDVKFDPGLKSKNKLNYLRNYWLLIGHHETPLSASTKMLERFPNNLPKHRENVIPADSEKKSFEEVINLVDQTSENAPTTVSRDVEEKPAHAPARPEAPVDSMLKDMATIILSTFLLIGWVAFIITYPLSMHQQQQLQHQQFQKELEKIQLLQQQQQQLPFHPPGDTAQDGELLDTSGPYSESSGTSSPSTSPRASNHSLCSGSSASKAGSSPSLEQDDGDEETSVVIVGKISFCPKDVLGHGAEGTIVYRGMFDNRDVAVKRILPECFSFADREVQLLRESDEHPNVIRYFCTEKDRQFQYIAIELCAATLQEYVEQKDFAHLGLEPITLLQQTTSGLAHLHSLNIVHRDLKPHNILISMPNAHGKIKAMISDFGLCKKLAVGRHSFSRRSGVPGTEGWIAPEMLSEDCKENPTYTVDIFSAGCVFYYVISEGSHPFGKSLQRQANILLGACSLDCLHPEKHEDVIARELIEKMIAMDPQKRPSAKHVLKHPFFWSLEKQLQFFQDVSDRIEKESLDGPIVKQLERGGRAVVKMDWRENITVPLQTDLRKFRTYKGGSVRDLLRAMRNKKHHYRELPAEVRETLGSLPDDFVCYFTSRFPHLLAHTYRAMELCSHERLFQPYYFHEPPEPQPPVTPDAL

[12] = target: Receptor-type tyrosine-protein kinase FLT3 (Homo sapiens) (UniProt P36888); conditions: Compound concentration 100.0 nM
[13] = test system: Receptor-type tyrosine-protein kinase FLT3 (Homo sapiens), P36888 [UNDEFINED MUTATION]; conditions: Compound concentration 100.0 nM
[14] = target: G protein-coupled receptor kinase 4 (Homo sapiens) (UniProt P32298); conditions: Compound concentration 100.0 nM
[15] = target: Mitogen-activated protein kinase kinase kinase kinase 1 (Homo sapiens) (UniProt Q92918); conditions: Compound concentration 100.0 nM
[16] = target: Inhibitor of nuclear factor kappa-B kinase subunit alpha (Homo sapiens) (UniProt O15111); conditions: Compound concentration 100.0 nM
[17] = target: Tyrosine-protein kinase ITK/TSK (Homo sapiens) (UniProt Q08881); conditions: Compound concentration 100.0 nM
[18] = test system: Leucine-rich repeat serine/threonine-protein kinase 2 (Homo sapiens), Q5S007 [G2019S]; conditions: Compound concentration 100.0 nM
Sequence of Leucine-rich repeat serine/threonine-protein kinase 2 (Homo sapiens), Q5S007 [G2019S] (Q5S007 whole entry G2019S): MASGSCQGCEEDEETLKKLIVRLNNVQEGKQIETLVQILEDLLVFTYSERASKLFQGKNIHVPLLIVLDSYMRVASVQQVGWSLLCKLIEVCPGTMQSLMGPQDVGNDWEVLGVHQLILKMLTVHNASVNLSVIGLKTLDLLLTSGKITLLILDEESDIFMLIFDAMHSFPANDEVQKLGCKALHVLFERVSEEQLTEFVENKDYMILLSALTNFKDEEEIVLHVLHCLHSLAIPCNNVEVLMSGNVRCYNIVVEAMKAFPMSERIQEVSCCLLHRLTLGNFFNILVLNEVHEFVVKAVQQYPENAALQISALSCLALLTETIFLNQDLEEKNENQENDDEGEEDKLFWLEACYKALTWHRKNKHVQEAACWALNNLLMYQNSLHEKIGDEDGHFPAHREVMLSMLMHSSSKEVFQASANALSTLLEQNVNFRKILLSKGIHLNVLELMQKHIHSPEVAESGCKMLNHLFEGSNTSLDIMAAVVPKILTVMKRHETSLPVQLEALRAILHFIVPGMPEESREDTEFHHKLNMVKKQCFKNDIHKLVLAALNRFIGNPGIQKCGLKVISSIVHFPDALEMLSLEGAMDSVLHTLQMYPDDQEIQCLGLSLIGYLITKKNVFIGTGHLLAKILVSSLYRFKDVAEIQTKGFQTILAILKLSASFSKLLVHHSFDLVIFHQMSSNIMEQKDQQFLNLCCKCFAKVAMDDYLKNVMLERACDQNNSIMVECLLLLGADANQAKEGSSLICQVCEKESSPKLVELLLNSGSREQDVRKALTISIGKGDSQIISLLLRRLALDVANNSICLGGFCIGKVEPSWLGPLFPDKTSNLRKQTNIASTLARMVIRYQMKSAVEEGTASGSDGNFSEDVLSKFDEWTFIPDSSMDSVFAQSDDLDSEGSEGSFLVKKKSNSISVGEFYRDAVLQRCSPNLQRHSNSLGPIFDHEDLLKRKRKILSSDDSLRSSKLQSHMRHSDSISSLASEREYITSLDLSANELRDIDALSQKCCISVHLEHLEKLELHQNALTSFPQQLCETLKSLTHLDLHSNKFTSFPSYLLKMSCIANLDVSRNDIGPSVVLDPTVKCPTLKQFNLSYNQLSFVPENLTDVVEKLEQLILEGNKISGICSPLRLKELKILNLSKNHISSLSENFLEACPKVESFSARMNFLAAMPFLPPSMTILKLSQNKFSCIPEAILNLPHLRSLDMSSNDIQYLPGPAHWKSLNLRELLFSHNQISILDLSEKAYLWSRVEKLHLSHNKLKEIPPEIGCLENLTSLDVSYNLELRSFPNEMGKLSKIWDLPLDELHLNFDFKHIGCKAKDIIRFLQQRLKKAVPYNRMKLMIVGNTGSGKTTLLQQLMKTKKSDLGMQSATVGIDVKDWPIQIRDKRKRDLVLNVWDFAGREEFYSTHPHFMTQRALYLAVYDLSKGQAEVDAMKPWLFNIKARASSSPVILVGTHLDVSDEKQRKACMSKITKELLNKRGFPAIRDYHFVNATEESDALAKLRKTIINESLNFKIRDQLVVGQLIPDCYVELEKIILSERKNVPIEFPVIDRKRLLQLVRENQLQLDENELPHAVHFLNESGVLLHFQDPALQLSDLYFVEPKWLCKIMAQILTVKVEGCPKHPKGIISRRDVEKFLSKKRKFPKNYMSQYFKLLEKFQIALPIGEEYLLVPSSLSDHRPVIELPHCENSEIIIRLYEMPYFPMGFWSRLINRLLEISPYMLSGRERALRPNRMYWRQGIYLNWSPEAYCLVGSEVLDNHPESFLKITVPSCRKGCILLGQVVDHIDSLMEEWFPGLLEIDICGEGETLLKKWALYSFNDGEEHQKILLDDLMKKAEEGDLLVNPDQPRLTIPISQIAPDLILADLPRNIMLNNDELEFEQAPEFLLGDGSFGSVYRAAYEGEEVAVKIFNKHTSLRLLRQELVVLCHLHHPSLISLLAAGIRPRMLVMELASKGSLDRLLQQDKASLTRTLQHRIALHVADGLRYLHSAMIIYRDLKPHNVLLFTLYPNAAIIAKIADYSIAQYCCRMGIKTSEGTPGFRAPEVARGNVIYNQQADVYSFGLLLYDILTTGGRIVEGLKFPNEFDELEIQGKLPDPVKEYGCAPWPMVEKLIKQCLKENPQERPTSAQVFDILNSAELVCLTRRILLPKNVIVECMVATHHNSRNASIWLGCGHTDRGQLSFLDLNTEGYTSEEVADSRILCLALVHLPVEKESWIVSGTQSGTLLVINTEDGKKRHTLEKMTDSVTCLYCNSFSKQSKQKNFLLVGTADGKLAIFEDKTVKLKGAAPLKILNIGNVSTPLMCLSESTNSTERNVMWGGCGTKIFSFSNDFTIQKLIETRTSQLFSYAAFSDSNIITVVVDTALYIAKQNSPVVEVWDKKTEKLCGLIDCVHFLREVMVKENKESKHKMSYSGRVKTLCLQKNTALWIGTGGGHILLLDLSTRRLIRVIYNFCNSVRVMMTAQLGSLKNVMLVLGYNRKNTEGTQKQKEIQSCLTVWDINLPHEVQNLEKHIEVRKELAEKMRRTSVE

[19] = target: Mitogen-activated protein kinase kinase kinase 4 (Homo sapiens) (UniProt Q9Y6R4); conditions: Compound concentration 100.0 nM
[20] = target: MAP kinase-activated protein kinase 2 (Homo sapiens) (UniProt P49137); conditions: Compound concentration 100.0 nM
[21] = target: Serine/threonine-protein kinase MARK2 (Homo sapiens) (UniProt Q7KZI7); conditions: Compound concentration 100.0 nM
[22] = target: Dual specificity mitogen-activated protein kinase kinase 2 (Homo sapiens) (UniProt P36507); conditions: Compound concentration 100.0 nM
[23] = target: T1, Dual specificity mitogen-activated protein kinase kinase 6 (Homo sapiens) (UniProt P52564); conditions: Compound concentration 100.0 nM
T1 sequence (whole entry): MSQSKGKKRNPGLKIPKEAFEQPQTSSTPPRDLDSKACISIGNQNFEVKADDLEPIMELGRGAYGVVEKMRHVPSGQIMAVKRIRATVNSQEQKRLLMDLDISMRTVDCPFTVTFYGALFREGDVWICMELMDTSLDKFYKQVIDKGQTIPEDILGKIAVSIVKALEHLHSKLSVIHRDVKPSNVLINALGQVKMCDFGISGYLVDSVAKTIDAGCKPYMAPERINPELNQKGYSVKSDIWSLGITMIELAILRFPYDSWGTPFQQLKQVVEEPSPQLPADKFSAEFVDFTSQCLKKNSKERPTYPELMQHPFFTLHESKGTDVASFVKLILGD

[24] = target: Mitogen-activated protein kinase kinase kinase 9 (Homo sapiens) (UniProt P80192); conditions: Compound concentration 100.0 nM
[25] = target: Myosin light chain kinase 2, skeletal/cardiac muscle (Homo sapiens) (UniProt Q9H1R3); conditions: Compound concentration 100.0 nM
[26] = target: Serine/threonine-protein kinase Nek11 (Homo sapiens) (UniProt Q8NG66); conditions: Compound concentration 100.0 nM
[27] = target: Serine/threonine-protein kinase PAK 3 (Homo sapiens) (UniProt O75914); conditions: Compound concentration 100.0 nM
[28] = test system: Phosphatidylinositol 4,5-bisphosphate 3-kinase catalytic subunit alpha isoform (Homo sapiens), P42336 [I800L]; conditions: Compound concentration 100.0 nM
[29] = target: Serine/threonine-protein kinase N1 (Homo sapiens) (UniProt Q16512); conditions: Compound concentration 100.0 nM
Sequence of Serine/threonine-protein kinase N1 (Homo sapiens) (Q16512 2-942 limits assumed): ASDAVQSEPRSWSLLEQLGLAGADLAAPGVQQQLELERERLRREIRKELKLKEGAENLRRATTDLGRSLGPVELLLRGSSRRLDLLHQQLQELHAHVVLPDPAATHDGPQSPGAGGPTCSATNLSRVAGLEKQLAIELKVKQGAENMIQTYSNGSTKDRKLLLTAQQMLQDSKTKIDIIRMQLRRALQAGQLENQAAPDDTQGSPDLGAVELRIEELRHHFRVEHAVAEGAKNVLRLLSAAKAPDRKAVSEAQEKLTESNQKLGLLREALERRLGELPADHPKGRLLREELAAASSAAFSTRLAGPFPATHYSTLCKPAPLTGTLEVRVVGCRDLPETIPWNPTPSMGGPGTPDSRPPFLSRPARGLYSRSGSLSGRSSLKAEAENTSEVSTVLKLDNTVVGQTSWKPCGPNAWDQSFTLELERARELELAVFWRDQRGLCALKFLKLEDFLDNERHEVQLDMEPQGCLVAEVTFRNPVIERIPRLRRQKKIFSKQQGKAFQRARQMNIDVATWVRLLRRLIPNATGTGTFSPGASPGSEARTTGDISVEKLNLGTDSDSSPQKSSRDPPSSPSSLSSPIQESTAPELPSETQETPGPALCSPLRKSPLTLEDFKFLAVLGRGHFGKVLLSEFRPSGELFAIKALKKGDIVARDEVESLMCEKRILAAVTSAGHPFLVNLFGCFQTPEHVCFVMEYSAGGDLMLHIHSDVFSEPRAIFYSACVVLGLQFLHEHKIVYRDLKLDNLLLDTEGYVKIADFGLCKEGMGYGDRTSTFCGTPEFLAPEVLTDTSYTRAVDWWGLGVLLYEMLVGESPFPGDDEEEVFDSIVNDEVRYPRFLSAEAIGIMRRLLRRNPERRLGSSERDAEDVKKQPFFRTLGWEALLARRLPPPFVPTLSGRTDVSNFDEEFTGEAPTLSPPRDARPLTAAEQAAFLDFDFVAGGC

[30] = target: Protein kinase C theta type (Homo sapiens) (UniProt Q04759); conditions: Compound concentration 100.0 nM
[31] = target: Interferon-induced, double-stranded RNA-activated protein kinase (Homo sapiens) (UniProt P19525); conditions: Compound concentration 100.0 nM
[32] = target: cAMP-dependent protein kinase catalytic subunit PRKX (Homo sapiens) (UniProt P51817); conditions: Compound concentration 100.0 nM
Sequence of cAMP-dependent protein kinase catalytic subunit PRKX (Homo sapiens) (P51817 whole entry): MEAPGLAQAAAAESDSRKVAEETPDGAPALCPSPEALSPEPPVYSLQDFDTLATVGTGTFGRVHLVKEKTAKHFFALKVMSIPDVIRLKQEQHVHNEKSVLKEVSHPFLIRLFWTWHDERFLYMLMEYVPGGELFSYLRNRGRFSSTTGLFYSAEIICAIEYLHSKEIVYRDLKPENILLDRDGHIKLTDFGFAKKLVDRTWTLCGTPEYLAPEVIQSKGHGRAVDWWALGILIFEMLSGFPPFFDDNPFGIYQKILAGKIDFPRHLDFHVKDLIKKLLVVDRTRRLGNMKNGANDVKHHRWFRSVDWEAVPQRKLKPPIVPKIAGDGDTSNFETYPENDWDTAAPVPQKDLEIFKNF

[33] = target: Serine/threonine-protein kinase RIO1 (Homo sapiens) (UniProt Q9BRS2); conditions: Compound concentration 100.0 nM
[34] = target: Serine/threonine-protein kinase RIO2 (Homo sapiens) (UniProt Q9BVS4); conditions: Compound concentration 100.0 nM
[35] = target: Ribosomal protein S6 kinase alpha-3 (Homo sapiens) (UniProt P51812); conditions: Compound concentration 100.0 nM
[36] = target: Serine/threonine-protein kinase SIK2 (Homo sapiens) (UniProt Q9H0K1); conditions: Compound concentration 100.0 nM
[37] = target: Serine/threonine-protein kinase WNK1 (Homo sapiens) (UniProt Q9H4A3); conditions: Compound concentration 100.0 nM
[38] = target: 5-hydroxytryptamine receptor 1D (Homo sapiens) (UniProt P28221); conditions: Compound concentration 10.0 uM
[39] = target: 5-hydroxytryptamine receptor 3A (Homo sapiens) (UniProt P46098); conditions: Compound concentration 10.0 uM
[40] = target: Beta-3 adrenergic receptor (Homo sapiens) (UniProt P13945); conditions: Compound concentration 10.0 uM

Row | Structure (SMILES) | Ki [1] [nM] | residual activity [2] [%] | residual activity [3] [%] | residual activity [4] [%] | residual activity [5] [%] | residual activity [6] [%] | residual activity [7] [%] | residual activity [8] [%] | residual activity [9] [%] | residual activity [10] [%] | residual activity [11] [%] | residual activity [12] [%] | residual activity [13] [%] | residual activity [14] [%] | residual activity [15] [%] | residual activity [16] [%] | residual activity [17] [%] | residual activity [18] [%] | residual activity [19] [%] | residual activity [20] [%] | also measured
1 | Cn1cc(Cl)c2c(Oc3c(F)cc(Nc4cc(Cl)nc(N)n4)cc3F)ccnc21 [BAY-4900] | 391 | 74 | 98 | 100 | 100 | 93 | 98 | 83 | 75 | 100 | 76 | 100 | 100 | 100 | 82 | 85 | 97 | 100 | 100 | 100 | residual activity [21]: 100%; residual activity [22]: 100%; residual activity [23]: 100%; residual activity [24]: 96%; residual activity [25]: 99%; residual activity [26]: 85%; residual activity [27]: 100%; residual activity [28]: 82%; residual activity [29]: 100%; residual activity [30]: 99%; residual activity [31]: 100%; residual activity [32]: 100%; residual activity [33]: 100%; residual activity [34]: 100%; residual activity [35]: 79%; residual activity [36]: 100%; residual activity [37]: 98%; inhibition [38]: -5.84%; inhibition [39]: 4.46%; inhibition [40]: 3.48%
2 | Cc1c[nH]c2nccc(Oc3c(F)cc(Nc4cc(Cl)nc(N)n4)cc3F)c12 [BAY-549] | 187 | 74 | 87 | 98 | 94 | 100 | 88 | 97 | 65 | 100 | 68 | 76 | 97 | 100 | 73 | 66 | 81 | 100 | 100 | 100 | residual activity [21]: 100%; residual activity [22]: 91%; residual activity [23]: 99%; residual activity [24]: 89%; residual activity [25]: 98%; residual activity [26]: 75%; residual activity [27]: 86%; residual activity [28]: 90%; residual activity [29]: 72%; residual activity [30]: 66%; residual activity [31]: 100%; residual activity [32]: 77%; residual activity [33]: 100%; residual activity [34]: 85%; residual activity [35]: 73%; residual activity [36]: 100%; residual activity [37]: 90%; inhibition [38]: 45%; inhibition [39]: 0.5%; inhibition [40]: 22%
